Source: paper PMC5825103 (PLoS ONE, 2018)

Legend:
[1] = target: T1, MR-LBD binding to co-activator peptides (Homo sapiens, UniProt P08235, C808S); assay: co-factor peptide recruitment by surface plasmon resonance; settings: 50 μM compound, relative to dexamethasone, seven peptides
T1 construct: MR-LBD (amino acids 712–984) with the mutations C808S; 6-HN tag (thrombin cleavable) (N); made in house
T1 sequence (P08235 712-984 C808S): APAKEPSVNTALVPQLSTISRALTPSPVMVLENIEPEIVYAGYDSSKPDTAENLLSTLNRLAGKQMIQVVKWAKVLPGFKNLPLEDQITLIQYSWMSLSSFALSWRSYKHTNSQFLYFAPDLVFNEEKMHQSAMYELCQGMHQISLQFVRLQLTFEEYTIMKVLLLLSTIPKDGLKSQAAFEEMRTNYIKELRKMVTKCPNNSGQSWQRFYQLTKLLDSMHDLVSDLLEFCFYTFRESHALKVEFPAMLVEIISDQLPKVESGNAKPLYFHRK
Description: Co-activator recruitment of MR was determined using surface plasmon resonance (SPR) biosensor (Biacore 3000, GE Healthcare) by probing the level of receptor binding to seven surface-immobilized co-activator peptides. All peptides carried an N-terminal biotin for surface-immobilisation, the following peptides and sequences were used:
Prior to the SPR measurements, excess dexamethasone was removed by gel filtration via a passage through a PD10 column (GE Healthcare) equilibrated in SPR running buffer (10 mM HEPES, 50 mM NaCl, 0,005% P20, pH 7.6). […] The surface was prepared through immobilization of the biotinylated peptides on a streptavidin chip (GE Healthcare) to levels of 1000±300 RU. The binding level at equilibrium was monitored for all samples including the reference sample that contained remaining traces of dexamethasone. All data was normalized to this reference sample in order to quantify the effects on peptide binding without bias by receptor instability. The surface was regenerated with 0.5% (w/v) SDS after each injection.

[2] = test system: uni-nephrectomised db/db mice; assay: organ protection in db/db uni-nephrectomised mice; assay type: in vivo
Description: Obese diabetic male db/db mice (BKS.Cg-Dock7^m +/+ Lepr^db/J homozygotes) and their littermate male db/m mice were obtained from the Jackson Laboratory (Bar Harbor, ME, USA). […] Mice were subjected to right uninephrectomy at 8 weeks of age to hasten the development of diabetic nephropathy as described previously [43]. Db/m mice that received a uninephrectomy at 8 weeks of age served as the operation control. […] All surgery was performed under isoflurane anesthesia, and all efforts were made to minimize suffering.
The blood glucose level and glycosylated hemoglobin (HbA1C) levels were monitored in tail blood samples using a blood glucose meter (Glucometer Elite XL, Bayer Healthcare, Elkhart, IN, USA) and the DC 2000+ HbA1C kit (Bayer Healthcare), respectively, before treatment and at the time of sacrifice. Twenty-four-hour urine was obtained from each mouse after placement in metabolic cages before treatment and at the time of sacrifice. Urine albumin was measured using the DC2000+ microalbumin reagent kit (Bayer Healthcare).
Mice were sacrificed under isoflurane anesthesia. Blood samples were obtained by cardiac puncture for the measurements of plasma compound, K^+ and creatinine concentrations. Plasma K^+ levels were determined on a Radiometer ABL 700 blood gas analyser (Radiometer, Copnchagen DK). Plasma creatinine levels were determined by LC-MS/MS. Urine creatinine was measured by the Jaffe method (Creatinine FS, REF117119910021, DiaSys). Kidneys were perfused through the heart with cold PBS and then excised. One piece of renal cortex was fixed in 10% neutralized formalin for histological staining.
Formalin-fixed renal cortex tissues were subsequently embedded in paraffin. Three-micrometer sections were cut from the tissue blocks and stained with periodic acid-Schiff (PAS). The PAS-positive glomerular matrix was quantitated in a blinded fashion by a computer-assisted method as previously described [43]. At least 20 glomeruli from each individual mouse were assessed. The PAS-positive material area in the mesangium was normalized by that of the total glomerular tuft where the percentage of mesangial matrix occupying each glomerulus area was rated. Glomerular sclerosis index was graded from 0 to 4+ as follows: 0 represents no lesion, 1+ represents sclerosis of <25% of the glomerulus, while 2 =, 3+ and 4+ represent sclerosis of 25% to 50%, >50% to 75%, and >75% of the glomerulus, respectively. A whole kidney average sclerosis index was obtained by averaging scores from all glomeruli on one section.

Structure (SMILES)	co-activator peptide binding [1]	FE K+ end ([2]; after 4 weeks treatment) [%]	FE Na+ end ([2]; after 4 weeks treatment) [%]	UAE w22 ([2]; after 4 weeks treatment) [µg 24h-1]	p-K+ end ([2]; after 4 weeks treatment) [mM]	u-K+ end ([2]; after 4 weeks treatment) [mmol/24h]	u-Na+ end ([2]; after 4 weeks treatment) [mmol/24h]	u-Na+/K+ end ([2]; after 4 weeks treatment)	UAE w18 ([2]; before treatment, 18 weeks of age) [µg 24h-1]	increased injury (glomerular ECM scoring) from week 18 to 22 ([2]; four week treatment)
C[C@]12CCC(=O)C=C1CC[C@@H]1[C@@H]2[C@@H](O)C[C@]2(C=O)[C@@H](C(=O)CO)CC[C@@H]12 [aldosterone]	strongest peptide binding	–	–	–	–	–	–	–	–	–
CCOC(=O)[C@H](CCc1ccccc1)N[C@@H](C)C(=O)N1CCC[C@H]1C(=O)O [enalapril]	–	15.6 ± 0.4	0.18 ± 0.01	583 ± 97	4.4 ± 0.1	0.90 ± 0.07	0.36 ± 0.03	0.40 ± 0.01	958 ± 184	prevented
